Source: patent publication US10473645B2, “Methods for identifying a receptor for a ligand and uses thereof” (UNIVERSITE DE GENEVE, priority 2014, dated 2019)

Legend:
[1] = tested on: neurons expressing Olfr983; assay: pS6 immunolabeling with OR in situ hybridization after odorant exposure; type: in vivo, mouse; settings: 60 minutes
Description: (§1) In order to independently validate the identity of an acetophenone receptor obtained with the RNAseq approach, the potential colocalization following acetophenone exposure of a neuronal activity marker (the phosphorylated ribosomal protein S6 (pS6) (Knight et al., 2012, Cell, 151, 1126-1137) and specific olfactory receptors were evaluated. To this aim, in-situ hybridizations were performed on sections of olfactory tissue with probes targeting receptor mRNAs followed by immunolabeling of pS6. The probes used were directed against the transcripts of most of the ORs determined as responsive including Olfr983 transcripts (encoding a known acetophenone receptor), Olfr171 transcripts (encoding a known ethyl isobutyrate receptor), and Olfr145 transcripts, encoding a newly identified receptor by RNAseq. Before analysis, mice were exposed to either 5% acetophenone, 5% ethyl isobutyrate, or a negative control condition for 60 minutes. […] 66% (Olfr983) and 70% (Olfr145) of the neurons were positive for pS6 after acetophenone exposure, while only 11% of the neurons expressing Olfr171 were positive for pS6 after exposure to this compound.

OSNs expressing olfr901 = assay: as above; type: in vivo, mouse; settings: 5% acetophenone, 60 minutes
Description: as §1

OSNs expressing olfr19 = assay: as above; type: in vivo, mouse; settings: 5% acetophenone, 60 minutes
Description: as §1

OSNs expressing olfr922 = assay: as above; type: in vivo, mouse; settings: 5% acetophenone, 60 minutes
Description: as §1

OSNs expressing olfr30 = assay: as above; type: in vivo, mouse; settings: 5% acetophenone, 60 minutes
Description: as §1

OSNs expressing olfr229 = assay: as above; type: in vivo, mouse; settings: 5% acetophenone, 60 minutes
Description: as §1

OSNs expressing olfr109 = assay: as above; type: in vivo, mouse; settings: 5% acetophenone, 60 minutes
Description: as §1

OSNs expressing olfr1377 = assay: as above; type: in vivo, mouse; settings: 5% acetophenone, 60 minutes
Description: as §1

[2] = tested on: neurons expressing Olfr145; assay: as above; type: in vivo, mouse; settings: 60 minutes
Description: as §1

[3] = tested on: Olfr171-expressing neurons; assay: as above; parameters: species or system mouse; settings: 5% odorant, 60 minutes, in vivo
Description: as §1

Olfr983 = settings: expressed in HEK cells; previously shown; read-out: EC50 as agonist of Olfr983; cited from earlier work
Olfr160 = assay: OR transcript level by RT-qPCR after in vivo odorant exposure; parameters: species or system mouse; key to olfr160 candidate OR (RNAseq) confirmed by qPCR: The transcript downregulation of 21 out of the 26 olfactory receptor candidates obtained by RNAseq was confirmed by qPCR; false RNAseq positive candidates, namely OR candidates for which in fact mRNA was not downregulated following acetophenone exposure; settings: for Olfr160 mRNA level relative to unexposed controls: 5% odorant, 5 hours, in vivo, RT-qPCR
Description: In vivo exposure to odorant: Starting 48 h before experiments, mice were habituated to pure DMSO on a cotton ball. 200 μl were pipetted directly onto the cotton and placed in the cage, replacing any cotton that was already in the cage for nest-making purposes.
On the day of the experiment, mice receiving odorants were transferred to a different room, where they were exposed to a cotton ball on which 200 μl of odorant diluted in pure DMSO were deposited. Exposures started in the morning between 8 and 10 am (that is two hours after lights were on) and mice were killed and dissected between 1 and 3 pm. […] If a number of different odorants were tested in the same experiment, a different overpressurized room would always be used for each odorant to avoid odor cross-contamination.
After odorant exposure, mice were killed by cervical dislocation and immediately decapitated. The main olfactory epithelia (MOE), were harvested in their entirety and transferred to a tube containing 600 μl of lysis buffer and β-mercaptoethanol (RNAeasy kit, Qiagen, following the manufacturer protocol) and a 0.5 cm diameter steel ball, and then put on ice. Samples were then homogenized using a FastPrep®-24 instrument (MP Biomedicals) at 6 m/s for 30 s and left on ice. RNA extraction was performed on all samples in parallel using the Qiagen RNeasy Mini® kit following the manufacturer's instructions. Two DNase treatments were performed on all samples: first using the Qiagen RNase-Free DNase Set® and then using the Life Technologies Ambion DNase I® kit. RNA samples were then aliquoted and stored at −80° C.
RNA concentrations were determined using an Amersham Ultrospec® 3100 Pro spectrophotometer, and RNA quality was evaluated with an Agilent Technologies 2100 Bioanalyzer®. […]
qPCR Ct values were analyzed using an in-house developed Microsoft Excel® macro file. […] Ct values were converted to quantities relative to the maximum for each given gene. Selected reference genes were then analyzed for variance using the geNorm algorithm. […]

Olfr1377 = settings: expressed in HEK cells; previously shown; read-out: EC50 as agonist of Olfr1377; cited from earlier work

Structure (SMILES): CC(=O)c1ccccc1 [acetophenone]
- olfr983 ps6 positive ([1]; 5% acetophenone): y (neuronal activation (i.e. pS6 signal in a fraction of neuron exceeding 15% relative to controls))
- fraction of Olfr983-expressing neurons positive for pS6 ([1]; 5% odorant, in vivo): 66%
- olfr901 ps6 positive (OSNs expressing olfr901): y (neuronal activation (i.e. pS6 signal in a fraction of neuron exceeding 15% relative to controls))
- olfr19 ps6 positive (OSNs expressing olfr19): y (neuronal activation (i.e. pS6 signal in a fraction of neuron exceeding 15% relative to controls))
- olfr922 ps6 positive (OSNs expressing olfr922): y (neuronal activation (i.e. pS6 signal in a fraction of neuron exceeding 15% relative to controls))
- olfr30 ps6 positive (OSNs expressing olfr30): y (neuronal activation (i.e. pS6 signal in a fraction of neuron exceeding 15% relative to controls))
- olfr229 ps6 positive (OSNs expressing olfr229): y (neuronal activation (i.e. pS6 signal in a fraction of neuron exceeding 15% relative to controls))
- olfr109 ps6 positive (OSNs expressing olfr109): y (neuronal activation (i.e. pS6 signal in a fraction of neuron exceeding 15% relative to controls))
- olfr1377 ps6 positive (OSNs expressing olfr1377): y (neuronal activation (i.e. pS6 signal in a fraction of neuron exceeding 15% relative to controls))
- olfr145 ps6 positive ([2]; 5% acetophenone): y (neuronal activation (i.e. pS6 signal in a fraction of neuron exceeding 15% relative to controls))
- fraction of Olfr145-expressing neurons positive for pS6 ([2]; 5% odorant, in vivo): 70%
- fraction of Olfr171-expressing neurons positive for pS6 [3]: 11%
- EC50 (Olfr983): < 50 µM
- olfr160 candidate OR (RNAseq) confirmed by qPCR (Olfr160; 5% acetophenone exposure): y
- Olfr160 mRNA level relative to unexposed controls (Olfr160): decrease
- Olfr160 mRNA level relative to unexposed controls (Olfr160; listed as Acetophenone): downregulates
- EC50 (Olfr1377): < 50 µM
